Experimental data reported in ChEMBL document CHEMBL4184262, “Iodine mediated pyrazolo-quinoline derivatives as potent anti-proliferative agents” (Bioorg Med Chem Lett, 2018).

Experiments:
Type in all cases: functional, cell-based
A549 = experiment: Antiproliferative activity against human A549 cells incubated for 24 hrs by MTT assay; settings: A549, 24 h
HeLa = experiment: Antiproliferative activity against human HeLa cells incubated for 24 hrs by MTT assay
SK-N-SH = experiment: Antiproliferative activity against human SK-N-SH cells incubated for 24 hrs by MTT assay
HepG2 = experiment: Antiproliferative activity against human HepG2 cells incubated for 24 hrs by MTT assay; settings: HepG2, 24 h
MCF7 = experiment: Antiproliferative activity against human MCF7 cells incubated for 24 hrs by MTT assay; settings: MCF7, 24 h

IC50 (A549) [µM]	IC50 (HeLa) [µM]	IC50 (SK-N-SH) [µM]	IC50 (HepG2) [µM]	IC50 (MCF7) [µM]	SMILES
8.1	11.8	5.54	24.4	18.4	Brc1ccc(-c2nn(-c3ccccc3)c3c2c(-c2cccc4ccccc24)nc2ccccc23)cc1
8.09	5.62	6.65	10.8	11.1	Clc1ccc(-c2nc3ccccc3c3c2c(-c2ccccc2)nn3-c2ccccc2)cc1
15.6	6.49	3.87	19.3	20.3	O=[N+]([O-])c1cccc(-c2nc3ccccc3c3c2c(-c2ccc(Br)cc2)nn3-c2ccccc2)c1
8.17	5.24	11.5	83.9	77.8	Clc1ccc(-c2nc3ccccc3c3c2c(-c2ccccc2)nn3-c2ccccc2)c(Cl)c1
9.34	23.4	5.24	35	42.4	Brc1ccc(-c2nn(-c3ccccc3)c3c2c(-c2cccs2)nc2ccccc23)cc1
8.45	5.29	5.54	30.3	123	COc1ccccc1-c1nc2ccccc2c2c1c(-c1ccc(Br)cc1)nn2-c1ccccc1
5.96	81.2	7.13	180	6.01	Clc1ccc(-c2nc3ccccc3c3c2c(-c2ccc(Br)cc2)nn3-c2ccccc2)c(Cl)c1
41.1	12	3.76	42.8	10.4	COc1ccc(-c2nc3ccccc3c3c2c(-c2ccc(Br)cc2)nn3-c2ccccc2)c(OC)c1
8.81	4.89	3.83	30.4	14	Brc1ccc(-c2nn(-c3ccccc3)c3c2c(-c2ccco2)nc2ccccc23)cc1
8.79	9.52	5.47	20.7	38	Clc1ccc(-c2nc3ccccc3c3c2c(-c2ccc(Br)cc2)nn3-c2ccccc2)cc1
56.8	7.38	5.02	32.7	24.2	Cc1ccc(-c2nc3ccccc3c3c2c(-c2ccccc2)nn3-c2ccccc2)cc1
4.92	14.3	5.99	14.6	12.3	Brc1ccc(-c2nn(-c3ccccc3)c3c2c(-c2ccccc2)nc2ccccc23)cc1
25.8	7.81	5.39	18.8	15.4	COc1ccccc1-c1nc2ccccc2c2c1c(-c1ccccc1)nn2-c1ccccc1
2.43	8.3	4.54	26	19.6	Cc1ccc(-c2nc3ccccc3c3c2c(-c2ccc(Br)cc2)nn3-c2ccccc2)cc1
0.223	–	2.42	6.11	–	COc1cccc2c1C(=O)c1c(O)c3c(c(O)c1C2=O)C[C@@](O)(C(=O)CO)C[C@@H]3O[C@H]1C[C@H](N)[C@H](O)[C@H](C)O1 [DOXORUBICIN]
16.5	24.6	5.24	18.6	32.6	c1ccc(-c2nc3ccccc3c3c2c(-c2ccccc2)nn3-c2ccccc2)cc1
